According to PubChem BioAssay (NCI):
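Results reflect a 48-hour exposure of cells in 96-well plates to compound at five concentrations. GI50 marks 50% less growth. TGI: total growth inhibition.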

Columns and labels:
Test in all cases: inhibition of tumour cell growth, NCI panel, 48 h
[1] = system: 786-0 renal
[2] = system: A498 renal
[3] = system: A549 NSCLC
[4] = system: ACHN renal
[5] = system: BT-549 breast
[6] = system: CAKI-1 renal
[7] = system: CCRF-CEM leukemia
[8] = system: COLO 205 colon
[9] = system: DU-145 prostate
[10] = system: EKVX NSCLC
[11] = system: HCC-2998 colon
[12] = system: HCT-116 colon
[13] = system: HCT-15 colon
[14] = system: HL-60(TB) leukemia
[15] = system: HOP-62 NSCLC
[16] = system: HOP-92 NSCLC
[17] = system: HS 578T breast
[18] = system: HT29 colon
[19] = system: IGROV1 ovarian
[20] = system: K-562 leukemia
[21] = system: KM12 colon
[22] = system: LOX IMVI melanoma
[23] = system: M14 melanoma
[24] = system: MALME-3M melanoma
[25] = system: MCF7 breast
[26] = system: MDA-MB-231 breast
[27] = system: MOLT-4 leukemia
[28] = system: NCI-H226 lung
[29] = system: NCI-H23 lung
[30] = system: NCI-H460 lung
[31] = system: NCI-H522 lung
[32] = system: NCI/ADR-RES ovarian
[33] = system: OVCAR-3 ovarian
[34] = system: OVCAR-4 ovarian
[35] = system: OVCAR-5 ovarian
[36] = system: OVCAR-8 ovarian
[37] = system: PC-3 prostate
[38] = system: RPMI-8226 leukemia
[39] = system: RXF 393 renal
[40] = system: SF-268 CNS
[41] = system: SF-295 CNS
[42] = system: SF-539 CNS
[43] = system: SK-MEL-2 melanoma
[44] = system: SK-MEL-28 melanoma
[45] = system: SK-MEL-5 melanoma
[46] = system: SK-OV-3 ovarian
[47] = system: SN12C renal
[48] = system: SNB-19 CNS
[49] = system: SNB-75 CNS
[50] = system: SR leukemia
[51] = system: SW-620 colon
[52] = system: T-47D breast
[53] = system: TK-10 renal
[54] = system: U251 CNS
[55] = system: UACC-62 melanoma
[56] = system: UO-31 renal

Which GI50 [1] does the source give for `CCOC(=O)/C=C/C1=C(c2ccsc2)c2ccc(OC)cc2CC1` here?
The GI50 was 0.511 µM.

And the TGI [1]?
Its TGI is 30.3 µM.

What about the GI50 [2] of the same molecule?
Its GI50 is 0.512 µM.

What about the TGI [2] of the same molecule?
Its TGI is > 31.3 µM.

And the GI50 [3]?
Its GI50 is 0.671 µM.

And the TGI [3]?
The TGI was > 100 µM.

What about the GI50 [4] of the same molecule?
Its GI50 is 0.701 µM.

What about the TGI [4] of the same molecule?
The TGI was > 52.7 µM.

And the GI50 [5]?
Its GI50 is 0.787 µM.

And the TGI [5]?
Its TGI is > 46.9 µM.

And the GI50 [6]?
The GI50 was 0.387 µM.

What about the TGI [6] of the same molecule?
The TGI was > 100 µM.

And the GI50 [7]?
The GI50 was 0.328 µM.

What about the GI50 [8] of the same molecule?
The GI50 was 0.213 µM.

And the TGI [8]?
Its TGI is 1.36 µM.

And the GI50 [9]?
The GI50 was 0.473 µM.

And the TGI [9]?
The TGI was > 36.5 µM.

And the GI50 [10]?
The GI50 was 6 µM.

What about the TGI [10] of the same molecule?
Its TGI is > 100 µM.

What about the GI50 [11] of the same molecule?
The GI50 was 4.57 µM.

What about the TGI [11] of the same molecule?
The TGI was 26.7 µM.

What about the GI50 [12] of the same molecule?
The GI50 was 0.376 µM.

And the TGI [12]?
Its TGI is > 39.4 µM.

And the GI50 [13]?
The GI50 was 0.222 µM.

What about the TGI [13] of the same molecule?
The TGI was > 20.2 µM.

And the GI50 [14]?
The GI50 was 0.206 µM.

And the TGI [14]?
The TGI was 0.794 µM.

And the GI50 [15]?
Its GI50 is 0.599 µM.

And the TGI [15]?
Its TGI is > 100 µM.

And the GI50 [16]?
The GI50 was 2.29 µM.

What about the TGI [16] of the same molecule?
The TGI was > 55.4 µM.

And the GI50 [17]?
The GI50 was 0.43 µM.

And the TGI [17]?
Its TGI is > 38.7 µM.

What about the GI50 [18] of the same molecule?
The GI50 was 0.275 µM.

What about the TGI [18] of the same molecule?
The TGI was > 41.4 µM.

And the GI50 [19]?
The GI50 was 6.26 µM.

What about the TGI [19] of the same molecule?
Its TGI is > 100 µM.

What about the GI50 [20] of the same molecule?
The GI50 was 0.0592 µM.

What about the TGI [20] of the same molecule?
The TGI was 12.5 µM.

And the GI50 [21]?
The GI50 was 0.169 µM.

What about the TGI [21] of the same molecule?
The TGI was 15.4 µM.

What about the GI50 [22] of the same molecule?
The GI50 was 0.61 µM.

What about the TGI [22] of the same molecule?
The TGI was > 50.1 µM.

What about the GI50 [23] of the same molecule?
The GI50 was 0.378 µM.

What about the TGI [23] of the same molecule?
Its TGI is > 100 µM.

And the GI50 [24]?
The GI50 was 0.205 µM.

And the TGI [24]?
The TGI was > 100 µM.

And the GI50 [25]?
Its GI50 is 0.364 µM.

What about the TGI [25] of the same molecule?
The TGI was 26.4 µM.

And the GI50 [26]?
The GI50 was 0.924 µM.

What about the TGI [26] of the same molecule?
Its TGI is 19.7 µM.

What about the GI50 [27] of the same molecule?
Its GI50 is 0.512 µM.

And the TGI [27]?
Its TGI is 12.9 µM.

And the GI50 [28]?
The GI50 was 0.769 µM.

And the TGI [28]?
Its TGI is > 62.8 µM.

And the GI50 [29]?
Its GI50 is 0.525 µM.

What about the TGI [29] of the same molecule?
Its TGI is > 100 µM.

And the GI50 [30]?
The GI50 was 2.21 µM.

And the TGI [30]?
Its TGI is 15.8 µM.

What about the GI50 [31] of the same molecule?
The GI50 was 0.26 µM.

What about the TGI [31] of the same molecule?
The TGI was > 100 µM.

And the GI50 [32]?
The GI50 was 0.285 µM.

What about the GI50 [33] of the same molecule?
The GI50 was 0.205 µM.

And the TGI [33]?
Its TGI is 0.686 µM.

And the GI50 [34]?
The GI50 was 2.33 µM.

And the TGI [34]?
Its TGI is > 100 µM.

And the GI50 [35]?
The GI50 was 1.66 µM.

What about the TGI [35] of the same molecule?
Its TGI is > 100 µM.

What about the GI50 [36] of the same molecule?
Its GI50 is 0.661 µM.

What about the TGI [36] of the same molecule?
Its TGI is > 41.9 µM.

What about the GI50 [37] of the same molecule?
Its GI50 is 0.202 µM.

And the GI50 [38]?
Its GI50 is 0.292 µM.

And the TGI [38]?
Its TGI is 4.15 µM.

And the GI50 [39]?
The GI50 was 0.235 µM.

What about the TGI [39] of the same molecule?
Its TGI is 5.02 µM.

What about the GI50 [40] of the same molecule?
The GI50 was 0.656 µM.

What about the TGI [40] of the same molecule?
The TGI was 58.1 µM.

And the GI50 [41]?
The GI50 was 0.349 µM.

And the TGI [41]?
The TGI was 20.6 µM.

What about the GI50 [42] of the same molecule?
The GI50 was 0.388 µM.

What about the TGI [42] of the same molecule?
Its TGI is 6.13 µM.

What about the GI50 [43] of the same molecule?
The GI50 was 3.66 µM.

And the TGI [43]?
Its TGI is > 24.7 µM.

What about the GI50 [44] of the same molecule?
The GI50 was 0.982 µM.

What about the TGI [44] of the same molecule?
The TGI was > 49.8 µM.

What about the GI50 [45] of the same molecule?
Its GI50 is 0.195 µM.

And the TGI [45]?
Its TGI is 11.2 µM.

And the GI50 [46]?
The GI50 was 0.359 µM.

And the TGI [46]?
Its TGI is > 85.6 µM.

And the GI50 [47]?
The GI50 was 0.837 µM.

What about the TGI [47] of the same molecule?
The TGI was > 23.9 µM.

And the GI50 [48]?
Its GI50 is 0.357 µM.

And the TGI [48]?
Its TGI is > 100 µM.

And the GI50 [49]?
The GI50 was 0.263 µM.

And the TGI [49]?
The TGI was > 100 µM.

And the GI50 [50]?
Its GI50 is 0.156 µM.

And the TGI [50]?
Its TGI is 6.37 µM.

And the GI50 [51]?
The GI50 was 0.349 µM.

And the TGI [51]?
The TGI was > 100 µM.

And the GI50 [52]?
The GI50 was 0.33 µM.

What about the TGI [52] of the same molecule?
The TGI was > 100 µM.

What about the GI50 [53] of the same molecule?
Its GI50 is 0.716 µM.

What about the TGI [53] of the same molecule?
Its TGI is > 100 µM.

What about the GI50 [54] of the same molecule?
Its GI50 is 0.405 µM.

What about the TGI [54] of the same molecule?
The TGI was > 100 µM.

What about the GI50 [55] of the same molecule?
Its GI50 is 1.79 µM.

And the TGI [55]?
The TGI was 26.2 µM.

And the GI50 [56]?
Its GI50 is 7.6 µM.

What about the TGI [56] of the same molecule?
Its TGI is > 100 µM.
